Source: the NIST ThermoML archive (doi:10.1016/j.jct.2015.09.034)
± gives the expanded uncertainty stated by the source.

Details: Liquid, Buoyancy - hydrostatic balance with magnetic suspension - one sinker

C [methane]
Details	mass density [kg/m3]
105 K, 185.5 kPa	432.098 ± 0.16
105 K, 478.95 kPa	432.339 ± 0.16
105 K, 973.88 kPa	432.743 ± 0.16
105 K, 1970.8 kPa	433.554 ± 0.17
105 K, 5044.6 kPa	435.981 ± 0.17
115 K, 479.33 kPa	417.827 ± 0.16
115 K, 973.28 kPa	418.319 ± 0.16
115 K, 1970 kPa	419.298 ± 0.16
125 K, 477.88 kPa	402.38 ± 0.15
125 K, 972.71 kPa	402.99 ± 0.15
125 K, 1970.4 kPa	404.194 ± 0.15
125 K, 5112.4 kPa	407.803 ± 0.15
135 K, 783.75 kPa	386.1 ± 0.15
135 K, 1001.2 kPa	386.441 ± 0.15
135 K, 2014.3 kPa	387.992 ± 0.15
135 K, 5208.9 kPa	392.557 ± 0.15
